In ChEMBL document CHEMBL3351493, “Beta-aminoketones as prodrugs for selective irreversible inhibitors of type-1 methionine aminopeptidases” (Bioorg Med Chem Lett, 2014):
Calls of active or inactive are those of the source. The calls are words filed in the database; no cut-off is given here.

Columns and labels:
[1] = test system: MeWo; test: Cytotoxicity against human MeWo cells at 1.6 to 100 ug/ml after 72 hrs by crystal violet assay; format: functional, cell-based
[2] = test system: SW707; test: Cytotoxicity against human SW707 cells at 1.6 to 100 ug/ml after 72 hrs by crystal violet assay; format: functional, cell-based
[3] = test system: BT-474; test: Cytotoxicity against human BT474 cells at 1.6 to 100 ug/ml after 72 hrs by crystal violet assay; format: functional, cell-based
[4] = Cytotoxicity against human Flow 2002 cells at 1.6 to 100 ug/ml after 72 hrs by crystal violet assay; format: cell-based; conditions: flow 2002, 72 h
[5] = test system: HaCaT; test: Cytotoxicity against human HaCaT cells at 1.6 to 100 ug/ml after 72 hrs by crystal violet assay; format: cell-based
[6] = test system: Calu-6; test: Cytotoxicity against human Calu6 cells at 1.6 to 100 ug/ml after 72 hrs by crystal violet assay; format: functional, cell-based
[7] = Glutathione reactivity assessed as second-order rate constant at 250 uM at pH 6.0 by HPLC-UV method
[8] = test system: A-431; test: Cytotoxicity against human A431 cells at 1.6 to 100 ug/ml after 72 hrs by crystal violet assay; format: functional, cell-based
[9] = test system: CAPAN-1; test: Cytotoxicity against human Capan1 cells at 1.6 to 100 ug/ml after 72 hrs by crystal violet assay; format: functional, cell-based
[10] = test system: A 172; test: Cytotoxicity against human A172 cells at 1.6 to 100 ug/ml after 72 hrs by crystal violet assay; format: functional, cell-based
[11] = test system: Ca-Ski; test: Cytotoxicity against human CaSki cells at 1.6 to 100 ug/ml after 72 hrs by crystal violet assay; format: functional, cell-based
[12] = test system: Escherichia coli; test: Antimicrobial activity against Escherichia coli BL21(DE3) assessed as inhibition of bacterial growth incubated at 37 degC for 7 hrs; format: functional

Structure (SMILES) | Activity [1] | Activity [2] | Activity [3] | Activity [4] | Activity [5] | Activity [6] | K [7] | Activity [8] | Activity [9] | Activity [10] | Activity [11] | MIC [12]
C=C1CCc2ccc(OC)cc2C1=O | Active | Active | Active | Toxic | Toxic | Active | 1.7 L/mol/s | Active | Active | Active | Active | 
C=C1CCc2ccccc2C1=O | Active | Active | Active | Toxic | Toxic | Active | 1.4 L/mol/s | Active | Active | Active | Active | 
NC[C@H]1O[C@H](O[C@H]2[C@H](O)[C@@H](O[C@H]3O[C@H](CO)[C@@H](O)[C@H](N)[C@H]3O)[C@H](N)C[C@@H]2N)[C@H](O)[C@@H](O)[C@@H]1O.O=S(=O)(O)O [KANAMYCIN SULFATE] |  |  |  |  |  |  |  |  |  |  |  | 10 µg/mL
CN(C)[C@@H]1C(O)=C(C(N)=O)C(=O)[C@@]2(O)C(O)=C3C(=O)c4c(O)cccc4[C@@](C)(O)[C@H]3C[C@@H]12.Cl [TETRACYCLINE HYDROCHLORIDE] |  |  |  |  |  |  |  |  |  |  |  | 1 µg/mL
C[C@@H]1O[C@@H]1P(=O)([O-])[O-].[Na+].[Na+] [PHOSPHOMYCIN DISODIUM] |  |  |  |  |  |  |  |  |  |  |  | 20 µg/mL
